Literature values as cited in PubChem BioAssay AID1259410 (Chemical Carcinogenesis Research Information System (CCRIS), 2018).

Test system: rodent tumor promotion studies, tumor incidence
Test: CCRIS tumor promotion studies

Compound: CN(CCCC(=O)c1cccnc1)N=O
- outcome (Carcinogen: Smoke, Doses [Carcinogen]: Exposure to smoke from non-filtered cigarettes for 6 mo, urine cotinine levels suggest equivalence to 1 pack a day human, Doses [Promoter]: 50 mg/kg every 4 wk for total of 4 doses, Route [Carcinogen]: Inhalation, Route [Promoter]: Subcutaneous, Species: Ferret, Strain/Sex: Male ( 9, 12/Group)): lung: tumors: squamous cell carcinomas (1/12), adenocarcinomas (3/12) and adenos

Compound: CC(C)NCC(O)c1ccc(O)c(O)c1 (stereo not given)
- outcome (Carcinogen: N-NITROSOMORPHOLINE, 59-89-2, Doses [Carcinogen]: 175 MG/L IN DRINKING WATER FOR 8 WK, Doses [Promoter]: 0, 0.1 MG/KG BW IN OLIVE OIL 1/2 D FOR 13 WK BEGINNING SIMULTANEOUSLY WITH CARCINOGEN TREATMENT (STUDY DURATION: 13 WK), Route [Carcinogen]: ORAL, Route [Promoter]: SUBCUTANEOUS, Species: RAT, Strain/Sex: SPRAGUE-DAWLEY/MALE): liver: carcinoma

Compound: C=C(C)[C@H]1CC=C(C)CC1
- outcome (Carcinogen: 7,12-DIMETHYLBENZ(A)ANTHRACENE, Doses [Carcinogen]: TOP, Route [Carcinogen]: DERMAL, Route [Promoter]: DERMAL, Species: MOUSE, Strain/Sex: MALE,FEMALE): integumentary system (skin)
- outcome (Carcinogen: N-ETHYL-N-HYDROXYETHYLNITROSAMINE, 13147-25-6, Doses [Carcinogen]: 500 PPM IN DRINKING WATER FOR 2 WK, Doses [Promoter]: 0, 150 MG/KG/D IN CORN OIL 5 D/WK FOR 30 WK BEGINNING POST CARCINOGEN TREATMENT (STUDY DURATION: 32 WK), Route [Carcinogen]: ORAL, Route [Promoter]: GAVAGE, Species: RAT, Strain/Sex: F344/MALE): kidney: adenoma
- outcome (Carcinogen: URETHANE, Doses [Carcinogen]: TOP, Route [Carcinogen]: DERMAL, Route [Promoter]: DERMAL, Species: MOUSE, Strain/Sex: MALE,FEMALE): integumentary system (skin)

Compound: CCCCCCCCCCCCCC1(CC(=O)OC2C(C)C3(O)C(C=C(CO)CC4(O)C(=O)C(C)=CC43)C3C(C)(C)C23OC(C)=O)OCC(C)(C)N1[O] (stereo not given)
- outcome (Carcinogen: 7,12-DIMETHYLBENZ[A]ANTHRACENE, 57-97-6, Doses [Carcinogen]: 100 NMOL ONCE, Doses [Promoter]: 0, 5 NMOL 2/WK FOR 36 WK BEGINNING 1 WK POST CARCINOGEN DOSE (STUDY DURATION: 25 WK), Route [Carcinogen]: DERMAL, Route [Promoter]: DERMAL, Species: MOUSE, Strain/Sex: NMRI/FEMALE): skin: tumor

Compound: CCOc1ccc(NC(C)=O)cc1
- outcome (Carcinogen: DIHYDROXY-DI-N-PROPYLNITROSAMINE, 53609-64-6, URACIL, 66-22-8, Carcinogen: DIHYDROXY-DI-N-PROPYLNITROSAMINE, 53609-64-6, URACIL, 66-22-8, Doses [Carcinogen]: 0.1% DHPN IN DRINKING WATER AND 3% URACIL IN THE DIET FOR 4 WK, Doses [Promoter]: 0, 2% IN DIET BEGINNING 1 WK POST CARCINOGEN TREATMENT AND CONTINUING FOR 35 WK (STUDY DURATION: 40 WK), Route [Carcinogen]: ORAL, ORAL, Route [Promoter]: ORAL, Species: RAT, Strain/Sex: F344/MALE): kidney: adenoma or adenocarcinoma; urinary bladder: papilloma
- outcome (Carcinogen: N-BUTYL-N-(4-HYDROXYBUTYL)NITROSAMINE, 3817-11-6, Doses [Carcinogen]: 0.05% IN DRINKING WATER FOR 4 WK, Doses [Promoter]: 0, 2% IN DIET FOR 8 WK AND 3 WK WITH A 4 WK INTERVAL BETWEEN TREATMENTS ADMINISTERED PRIOR TO CARCINOGEN TREATMENT (STUD, Route [Carcinogen]: ORAL, Route [Promoter]: ORAL, Species: MOUSE, Strain/Sex: NON/SHI/MALE): renal pelvis: carcinoma
- outcome (Carcinogen: N-BUTYL-N-(4-HYDROXYBUTYL)NITROSAMINE, Doses [Carcinogen]: 0.01, 0.05% IN DRINKING WATER FOR 4 WK, Doses [Promoter]: 2.5% IN DIET FOR 30 WK FOLLOWED BY CONTROL DIET FOR 6 WK, Route [Carcinogen]: ORAL, Route [Promoter]: ORAL, Species: RAT, Strain/Sex: WISTAR/MALE): urinary bladder: papilloma, carcinoma

Compound: CCCCCCCCCC(=O)OC[C@H](CO)OC(=O)CCCCCCCCC
- outcome (Carcinogen: 7,12-DIMETHYLBENZ[A]ANTHRACENE, 57-97-6, Doses [Carcinogen]: 200 NMOL IN 200 µL OF ACETONE ONCE, Doses [Promoter]: 0, 2, 5 UMOL IN 20 µL ACETONE 2/D 5 D/WK FOR 20 WK BEGINNING 1 WK AFTER LAST CARCINOGEN DOSE (STUDY DURATION: 24 WK), Doses [Promoter]: 0, 2, 5 UMOL IN 20 µL ACETONE 2/D 5 D/WK FOR 20 WK BEGINNING 1 WK AFTER LAST CARCINOGEN DOSE (STUDY DURATION: 24 WK), Route [Carcinogen]: DERMAL, Route [Promoter]: DERMAL, Species: MOUSE, Strain/Sex: CD-1/FEMALE): skin: papilloma

Compound: C=C1/C(=C\C=C2/CCC[C@]3(C)[C@@H]([C@H](C)CCCC(C)(C)O)CC[C@@H]23)C[C@@H](O)C[C@@H]1O
- outcome (Carcinogen: 7,12-DIMETHYLBENZ[A]ANTHRACENE, 57-97-6, Doses [Carcinogen]: 50 NMOL IN 200 µL ACETONE 2/WK FOR 16 WK, Doses [Promoter]: 0, 0.25, 0.5 NMOL IN 200 µL ACETONE APPLIED 1 HR PRIOR TO CARCINOGEN DOSES 2/WK FOR 16 WK (STUDY DURATION: 16 WK), Doses [Promoter]: 0, 0.25, 0.5 NMOL IN 200 µL ACETONE APPLIED 1 HR PRIOR TO CARCINOGEN DOSES 2/WK FOR 16 WK (STUDY DURATION: 16 WK), Route [Carcinogen]: DERMAL, Route [Promoter]: DERMAL, Species: MOUSE, Strain/Sex: CD-1/FEMALE): skin: tumors
- outcome (Carcinogen: 7,12-DIMETHYLBENZ[A]ANTHRACENE, 57-97-6, Doses [Carcinogen]: 50 NMOL IN 200 µL ACETONE 2/WK FOR 16 WK, Doses [Promoter]: 0, 0.25 NMOL IN 200 µL ACETONE APPLIED 1 HR PRIOR TO AND 24 HR POST CARCINOGEN DOSES 2/WK FOR 16 WK (STUDY DURATION: 16, Route [Carcinogen]: DERMAL, Route [Promoter]: DERMAL, Species: MOUSE, Strain/Sex: CD-1/FEMALE): skin: tumors
- outcome (Carcinogen: 7,12-DIMETHYLBENZ[A]ANTHRACENE, 57-97-6, Doses [Carcinogen]: 50 NMOL IN 200 µL ACETONE 2/WK FOR 16 WK, Doses [Promoter]: 0, 0.5 NMOL IN 200 µL ACETONE APPLIED 24 HR POST CARCINOGEN DOSES 2/WK FOR 16 WK (STUDY DURATION: 16 WK), Route [Carcinogen]: DERMAL, Route [Promoter]: DERMAL, Species: MOUSE, Strain/Sex: CD-1/FEMALE): skin: tumors
- outcome (Carcinogen: N-METHYL-N'-NITRO-N-NITROSOGUANADINE, 70-25-7, Doses [Carcinogen]: 150 MG/L IN DRINKING WATER, Doses [Promoter]: 0, 2.5, 5 MG/KG IN DIET FOR DURATION OF STUDY BEGINNING 4 WK POST CARCINOGEN TREATMENT (STUDY DURATION: 32 WK), Doses [Promoter]: 0, 2.5, 5 MG/KG IN DIET FOR DURATION OF STUDY BEGINNING 4 WK POST CARCINOGEN TREATMENT (STUDY DURATION: 32 WK), Route [Carcinogen]: ORAL, Route [Promoter]: ORAL, Species: RAT, Strain/Sex: WISTAR/MALE): glandular stomach: adenocarcinoma

Compound: Oc1c(Cl)c(Cl)c(Cl)c(Cl)c1Cl
- outcome (Carcinogen: DIETHYLNITROSAMINE [55-18-5], Doses [Carcinogen]: 20 PPM IN DRINKING WATER FOR 13 WEEKS (STUDY DURATION: 42 WK), Doses [Promoter]: 300 PPM IN DIET FOR 25 WK BEGINNING 4 WK POST LAST CARCINOGEN DOSE (STUDY DURATION: 42 WK), Route [Carcinogen]: ORAL, Route [Promoter]: ORAL, Species: MOUSE, Strain/Sex: B6C3F1/MALE): liver: adenoma or carcinoma
- outcome (Carcinogen: DIETHYLNITROSAMINE [55-18-5], Doses [Carcinogen]: 20 PPM IN DRINKING WATER FOR 13 WEEKS (STUDY DURATION: 42 WK), Doses [Promoter]: 600 PPM IN DIET FOR 25 WK BEGINNING 4 WK POST LAST CARCINOGEN DOSE (STUDY DURATION: 42 WK), Route [Carcinogen]: ORAL, Route [Promoter]: ORAL, Species: MOUSE, Strain/Sex: B6C3F1/MALE): liver: adenoma or carcinoma

Compound: C=CCS(=O)(=O)CC=C
- outcome (Carcinogen: Vinyl carbamate, 15805-73-9, Doses [Carcinogen]: 60 mg/kg once 2 hr after inhibitor (Study duration: 25 wk), Doses [Promoter]: 50 mg/kg once at beginning of experiment (Study duration: 25 wk), Route [Carcinogen]: Intraperitoneal, Route [Promoter]: Oral, Species: Mouse, Strain/Sex: F1 (Big Blue x A/J) (43/?)/47/?)): lung: solid tumors (61 (42%), 135 (86.5%), p<0.01)

Compound: CC(C)(c1ccc(O)cc1)c1ccc(O)cc1
- outcome (Carcinogen: 7,120Dimethylbenzanthracene (57-97-6), Doses [Carcinogen]: 30 mg/kg bw once to female offspring at 50 days of age, Doses [Promoter]: 0, 25, 250 ug/kg daily for 18 d from d 2 to d 20 postpartum to dams, Doses [Promoter]: 0, 25, 250 ug/kg daily for 18 d from d 2 to d 20 postpartum to dams, Route [Carcinogen]: Intragastric gavage, Route [Promoter]: Intragastric gavage, Species: Rat, Strain/Sex: Sprague Dawley CD/Female): breast tumors: incidence increased in offspring of 250 ug/kg dams; latent period

Compound: Oc1ccc(/C=C/c2cc(O)cc(O)c2)cc1
- outcome (Carcinogen: N-METHYL-N-NITROSOUREA, 684-93-5, Doses [Carcinogen]: 50 MG/KG ONCE AT 7 WK OF AGE, Doses [Promoter]: 100 MG/KG DAILY FOR 5 D AT 2 WK OF AGE (STUDY DURATION: 37 WK), Route [Carcinogen]: INTRAPERITONEAL, Route [Promoter]: SUBCUTANEOUS, Species: RAT, Strain/Sex: SPRAGUE-DAWLEY/FEMALE): mammary gland: adenocarcinoma

Compound: S=C=NCc1ccccc1
- outcome (Carcinogen: DIETHYLNITROSAMINE, 55-18-5, N-BUTYL-N-(4-HYDROXYBUTYL)NITROSAMINE, 3817-11-6, Carcinogen: DIETHYLNITROSAMINE, 55-18-5, N-BUTYL-N-(4-HYDROXYBUTYL)NITROSAMINE, 3817-11-6, Doses [Carcinogen]: 200 MG/KG DEN ONCE THEN 0.05% BBN IN DRINKING WATER FOR 4 WK, Doses [Promoter]: 0, 0.1% IN DIET FOR 32 WK BEGINNING 3 D POST CARCINOGEN TREATMENT (STUDY DURATION:36 WK), Route [Carcinogen]: INTRAPERITONEAL, ORAL, Route [Promoter]: ORAL, Species: RAT, Strain/Sex: F344/MALE): urinary bladder: papilloma, carcinoma
